From ChEMBL document CHEMBL4406886, “Discovery of arylamide-5-anilinoquinazoline-8-nitro derivatives as VEGFR-2 kinase inhibitors: Synthesis, in vitro biological evaluation and molecular docking” (Bioorg Med Chem Lett, 2019)
Activity calls are given as the source filed them. The rule behind the calls is not given here.

Experiments:
[1] = system: HepG2; assay: Antiproliferative activity against human HepG2 cells expressing VEGFR2 assessed as cell growth inhibition measured after 48 hrs by MTT assay; assay type: functional, cell-based; details: HepG2, 48 h
[2] = system: HUVEC; assay: Antiproliferative activity against human HUVEC cells expressing VEGFR2 assessed as cell growth inhibition measured after 48 hrs by MTT assay; assay type: functional, cell-based
[3] = system: A549; assay: Antiproliferative activity against human A549 cells expressing EGFR assessed as cell growth inhibition measured after 48 hrs by MTT assay; assay type: functional, cell-based; details: A549, 48 h
[4] = molecular target: T1, Vascular endothelial growth factor receptor 2 (Homo sapiens, UniProt P35968); details: at 1 µM
T1 sequence (P35968 whole entry): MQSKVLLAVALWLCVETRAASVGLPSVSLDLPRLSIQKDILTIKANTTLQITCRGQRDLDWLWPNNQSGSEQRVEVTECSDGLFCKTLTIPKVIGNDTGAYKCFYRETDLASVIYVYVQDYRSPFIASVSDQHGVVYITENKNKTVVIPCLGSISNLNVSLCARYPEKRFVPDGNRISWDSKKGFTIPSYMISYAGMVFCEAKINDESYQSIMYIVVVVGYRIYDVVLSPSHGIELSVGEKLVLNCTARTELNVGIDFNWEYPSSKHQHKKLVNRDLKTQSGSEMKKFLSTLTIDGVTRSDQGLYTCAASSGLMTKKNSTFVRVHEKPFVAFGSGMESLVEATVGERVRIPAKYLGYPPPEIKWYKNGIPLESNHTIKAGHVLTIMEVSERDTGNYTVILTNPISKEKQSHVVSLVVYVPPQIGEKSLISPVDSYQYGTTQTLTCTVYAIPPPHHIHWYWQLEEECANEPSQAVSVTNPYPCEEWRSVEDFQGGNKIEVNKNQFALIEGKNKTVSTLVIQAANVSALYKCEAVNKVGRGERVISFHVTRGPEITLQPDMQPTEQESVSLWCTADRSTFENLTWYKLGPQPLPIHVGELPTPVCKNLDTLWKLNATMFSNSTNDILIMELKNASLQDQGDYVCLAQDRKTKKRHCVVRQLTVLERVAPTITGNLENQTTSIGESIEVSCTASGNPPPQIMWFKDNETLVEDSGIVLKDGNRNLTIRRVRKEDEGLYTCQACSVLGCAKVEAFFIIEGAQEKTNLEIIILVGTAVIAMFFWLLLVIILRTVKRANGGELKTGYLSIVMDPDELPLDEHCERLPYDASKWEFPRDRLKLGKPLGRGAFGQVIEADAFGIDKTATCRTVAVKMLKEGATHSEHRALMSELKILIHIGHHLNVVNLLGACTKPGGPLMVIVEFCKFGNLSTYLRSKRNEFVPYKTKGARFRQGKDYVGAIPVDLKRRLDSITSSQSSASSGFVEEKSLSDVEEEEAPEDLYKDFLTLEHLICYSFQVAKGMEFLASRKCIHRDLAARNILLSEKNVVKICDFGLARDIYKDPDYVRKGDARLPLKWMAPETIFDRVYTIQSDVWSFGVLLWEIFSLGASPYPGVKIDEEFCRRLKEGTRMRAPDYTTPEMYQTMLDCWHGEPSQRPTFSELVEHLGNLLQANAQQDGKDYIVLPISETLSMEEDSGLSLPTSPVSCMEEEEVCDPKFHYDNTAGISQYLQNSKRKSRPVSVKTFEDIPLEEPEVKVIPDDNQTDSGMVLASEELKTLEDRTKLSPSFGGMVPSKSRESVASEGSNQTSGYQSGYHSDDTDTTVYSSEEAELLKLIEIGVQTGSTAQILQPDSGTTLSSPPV
Description: Inhibition of VEGFR2 (unknown origin) at 1 uM using poly (Glu,Tyr) 4:1 as substrate measured after 1 hr in presence of ATP by spectrophotometric analysis relative to control

[5] = molecular target: Epidermal growth factor receptor (Homo sapiens) (UniProt P00533); assay: Inhibition of EGFR (unknown origin) at 1 uM using poly (Glu,Tyr) 4:1 as substrate measured after 1 hr in presence of ATP by spectrophotometric analysis relative to control
Epidermal growth factor receptor (Homo sapiens), sequence (P00533 whole entry): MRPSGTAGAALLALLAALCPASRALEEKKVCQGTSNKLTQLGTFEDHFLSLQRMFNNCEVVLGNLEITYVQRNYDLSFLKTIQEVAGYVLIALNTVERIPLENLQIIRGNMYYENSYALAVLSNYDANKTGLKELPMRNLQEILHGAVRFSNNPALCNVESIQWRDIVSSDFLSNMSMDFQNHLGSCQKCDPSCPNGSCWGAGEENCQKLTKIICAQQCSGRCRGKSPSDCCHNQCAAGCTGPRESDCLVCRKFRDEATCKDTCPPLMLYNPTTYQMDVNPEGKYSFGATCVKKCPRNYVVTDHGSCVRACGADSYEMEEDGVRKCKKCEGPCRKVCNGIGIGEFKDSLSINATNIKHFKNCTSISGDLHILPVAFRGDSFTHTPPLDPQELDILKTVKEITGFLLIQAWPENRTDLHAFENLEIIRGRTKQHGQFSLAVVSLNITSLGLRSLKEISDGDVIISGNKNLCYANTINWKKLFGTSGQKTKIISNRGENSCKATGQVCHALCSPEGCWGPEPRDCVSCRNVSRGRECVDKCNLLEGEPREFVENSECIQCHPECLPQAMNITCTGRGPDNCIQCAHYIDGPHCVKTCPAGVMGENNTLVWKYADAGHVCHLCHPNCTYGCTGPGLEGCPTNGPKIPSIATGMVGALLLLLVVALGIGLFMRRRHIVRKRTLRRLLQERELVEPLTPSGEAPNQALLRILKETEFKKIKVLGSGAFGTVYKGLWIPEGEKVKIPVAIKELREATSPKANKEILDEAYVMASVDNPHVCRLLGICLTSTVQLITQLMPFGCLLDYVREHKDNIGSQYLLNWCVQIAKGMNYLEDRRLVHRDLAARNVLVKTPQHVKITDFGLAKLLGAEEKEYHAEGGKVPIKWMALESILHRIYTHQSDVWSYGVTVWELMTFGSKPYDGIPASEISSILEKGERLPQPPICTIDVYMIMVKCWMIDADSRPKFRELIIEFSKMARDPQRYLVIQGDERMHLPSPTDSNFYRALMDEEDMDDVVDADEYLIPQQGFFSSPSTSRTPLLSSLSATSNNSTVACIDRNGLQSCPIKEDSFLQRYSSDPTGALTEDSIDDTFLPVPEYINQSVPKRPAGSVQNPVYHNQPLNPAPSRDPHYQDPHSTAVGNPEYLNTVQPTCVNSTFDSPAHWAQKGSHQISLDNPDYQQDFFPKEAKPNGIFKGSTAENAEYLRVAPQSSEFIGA

[6] = system: MDA-MB-231; assay: Antiproliferative activity against human MDA-MB-231 cells expressing EGFR assessed as cell growth inhibition measured after 48 hrs by MTT assay; assay type: functional, cell-based; details: MDA-MB-231, 48 h
[7] = system: Chorioallantoic membrane; assay: Antiangiogenic activity in chicken fertilized egg chorioallantoic membrane assessed as decrease in blood vessel growth at 10 nM measured after 48 hrs by microscopic analysis; assay type: functional, tissue-based; details: Gallus gallus
[8] = system: L02; assay: Cytotoxicity against human LO2 cells; assay type: cell-based
[9] = molecular target: T1, Vascular endothelial growth factor receptor 2; assay: Inhibition of VEGFR2 (unknown origin) using poly (Glu,Tyr) 4:1 as substrate measured after 1 hr in presence of ATP by spectrophotometric analysis
[10] = system: HepG2; assay: Cell cycle arrest in human HepG2 cells assessed as accumulation at G1 phase at 10 nM measured after 6 hrs by propidium iodide staining based flow cytometry analysis (reference value: 47.9 %); assay type: functional
[11] = system: HepG2; assay: Induction of apoptosis in human HepG2 cells assessed as necrotic cells at 1 nM measured after 24 hrs by dUTP-FITC/propidium iodide staining based flow cytometry analysis (reference value: 0.2 %)
[12] = system: HepG2; assay: Induction of apoptosis in human HepG2 cells assessed as necrotic cells at 10 nM measured after 24 hrs by dUTP-FITC/propidium iodide staining based flow cytometry analysis (reference value: 0.2 %)
[13] = system: HepG2; assay: Cell cycle arrest in human HepG2 cells assessed as accumulation at G1 phase at 1 nM measured after 6 hrs by propidium iodide staining based flow cytometry analysis (reference value: 47.9 %); assay type: functional
[14] = system: HepG2; assay: Cell cycle arrest in human HepG2 cells assessed as accumulation at G0/G1 phase measured after 6 hrs by propidium iodide staining based flow cytometry analysis; assay type: functional
[15] = system: HepG2; assay: Cell cycle arrest in human HepG2 cells assessed as accumulation at G2 phase at 1 nM measured after 6 hrs by propidium iodide staining based flow cytometry analysis (reference value: 52.1 %); assay type: functional
[16] = system: HepG2; assay: Cell cycle arrest in human HepG2 cells assessed as accumulation at S phase at 10 nM measured after 6 hrs by propidium iodide staining based flow cytometry analysis (reference value: 0 %); assay type: functional
[17] = Solubility of compound; assay type: physicochemical
[18] = system: HepG2; assay: Cell cycle arrest in human HepG2 cells assessed as accumulation at S phase at 1 nM measured after 6 hrs by propidium iodide staining based flow cytometry analysis (reference value: 0 %); assay type: functional
[19] = system: HepG2; assay: Induction of apoptosis in human HepG2 cells assessed as apoptotic cells at 1 nM measured after 6 to 24 hrs by dUTP-FITC/propidium iodide staining based flow cytometry analysis (reference value: 2.6 %); assay type: functional
[20] = system: HepG2; assay: Cell cycle arrest in human HepG2 cells assessed as accumulation at G2 phase at 10 nM measured after 6 hrs by propidium iodide staining based flow cytometry analysis (reference value: 52.1 %); assay type: functional
[21] = system: HepG2; assay: Induction of apoptosis in human HepG2 cells assessed as apoptotic cells at 10 nM measured after 6 to 24 hrs by dUTP-FITC/propidium iodide staining based flow cytometry analysis (reference value: 2.6 %); assay type: functional

Structure (SMILES) | IC50 [1] [µM] | IC50 [2] [µM] | IC50 [3] [µM] | inhibition [4] [%] | inhibition [5] [%] | IC50 [6] [µM] | Activity [7] | other results
Cc1cccc(C(=O)Nc2cccc(Nc3ccc([N+](=O)[O-])c4ncnc(O)c34)c2)c1 | > 100 | 93.6 | > 100 | 18 | 11.3 | > 100 |  | 
O=C(Nc1cccc(Nc2ccc([N+](=O)[O-])c3ncnc(O)c23)c1)c1ccccc1Cl | 71.9 | 74.6 | > 100 | 30.1 | 22.5 | > 100 |  | 
COc1cccc(C(=O)Nc2ccc(Nc3ccc([N+](=O)[O-])c4ncnc(O)c34)cc2)c1 | 64.2 | 57.8 | > 100 | 47.6 | 36.7 | > 100 |  | 
O=C(Nc1cccc(Nc2ccc([N+](=O)[O-])c3ncnc(O)c23)c1)c1ccc(Cl)cc1 | 76.3 | 73.8 | > 100 | 38.5 | 9.4 | > 100 |  | 
O=C(Nc1cccc(Nc2ccc([N+](=O)[O-])c3ncnc(O)c23)c1)c1cccc(F)c1 | 72.1 | 74.2 | > 100 | 38.1 | 27.3 | > 100 |  | 
Cc1ccccc1C(=O)Nc1cccc(Nc2ccc([N+](=O)[O-])c3ncnc(O)c23)c1 | 90.3 | 89.6 | > 100 | 21.6 | 6.4 | > 100 |  | 
O=C(Nc1ccc(Nc2ccc([N+](=O)[O-])c3ncnc(O)c23)cc1)c1ccccc1Cl | 28 | 26.5 | 90.3 | 76.9 | 50.3 | 96.1 | Active | 
Cc1ccc(C(=O)Nc2ccc(Nc3ccc([N+](=O)[O-])c4ncnc(O)c34)cc2)cc1 | 18.5 | 14.3 | > 100 | 83.7 | 57.2 | 94.7 | Active | IC50 [8]: 93.2 µM
O=C(Nc1cccc(Nc2ccc([N+](=O)[O-])c3ncnc(O)c23)c1)c1ccccc1F | 69.6 | 70.4 | > 100 | 35.8 | 17.2 | > 100 |  | 
O=C(Nc1ccc(Nc2ccc([N+](=O)[O-])c3ncnc(O)c23)cc1)c1ccccc1F | 21 | 23.8 | 85.8 | 73.8 | 42.1 | 93.2 | Active | 
O=C(Nc1ccc(Nc2ccc([N+](=O)[O-])c3ncnc(O)c23)cc1)c1ccc(Cl)cc1 | 0.9 | 1.6 | 83 | 97.9 | 64.1 | 95.1 | Active | IC50 [9]: 363 nM; IC50 [8]: 73.5 µM
COc1ccccc1C(=O)Nc1ccc(Nc2ccc([N+](=O)[O-])c3ncnc(O)c23)cc1 | 40.7 | 36.3 | > 100 | 60.3 | 43.6 | 95.8 |  | 
COc1ccccc1C(=O)Nc1cccc(Nc2ccc([N+](=O)[O-])c3ncnc(O)c23)c1 | 90.3 | 82 | > 100 | 26.9 | 12.4 | > 100 |  | 
O=C(Nc1cccc(Nc2ccc([N+](=O)[O-])c3ncnc(O)c23)c1)c1ccc(F)cc1 | 68.5 | 63.2 | 95 | 41.9 | 18.5 | > 100 |  | 
O=C(Nc1ccc(Nc2ccc([N+](=O)[O-])c3ncnc(O)c23)cc1)c1ccc(F)cc1 | 0.2 | 0.5 | 69 | 102 | 69.2 | 58.4 | Active | IC50 [9]: 64.8 nM; Activity [10]: 41.7%; Activity [11]: 2.5%; Activity [12]: 2.1%; IC50 [8]: 63.2 µM; Activity [13]: 52.6%; Activity [14]: Dose-dependent effect; Activity [15]: 35.9%; Activity [16]: 34%; solubility [17]: Soluble; Activity [18]: 11.5%; Activity [19]: 34.3%; Activity [20]: 24.3%; Activity [21]: 72.2%
O=C(Nc1ccc(Nc2ccc([N+](=O)[O-])c3ncnc(O)c23)cc1)c1ccccc1 | 7.41 | 5.7 | 87.4 | 92.4 | 53.8 | 86.3 | Active | IC50 [9]: 735 nM; IC50 [8]: 65.3 µM
O=C(Nc1cccc(Nc2ccc([N+](=O)[O-])c3ncnc(O)c23)c1)c1cccc(Cl)c1 | 93 | 86.5 | > 100 | 29.2 | 26.3 | > 100 |  | 
Cc1cccc(C(=O)Nc2ccc(Nc3ccc([N+](=O)[O-])c4ncnc(O)c34)cc2)c1 | 40.8 | 47 | > 100 | 58.2 | 37.8 | > 100 |  | 
O=C(Nc1ccc(Nc2ccc([N+](=O)[O-])c3ncnc(O)c23)cc1)Nc1cc(C(F)(F)F)ccc1Cl | 13.7 | 2.1 | > 100 | 102 | 21.8 | > 100 |  | IC50 [9]: 15.4 nM; IC50 [8]: 84.2 µM
O=C(Nc1ccc(Nc2ccc([N+](=O)[O-])c3ncnc(O)c23)cc1)c1cccc(Cl)c1 | 42 | 36.7 | > 100 | 63.2 | 27.7 | > 100 | Active | 
O=C(Nc1cccc(Nc2ccc([N+](=O)[O-])c3ncnc(O)c23)c1)c1ccccc1 | 75.2 | 79.1 | > 100 | 37.8 | 15.4 | > 100 |  | 
Cc1ccccc1C(=O)Nc1ccc(Nc2ccc([N+](=O)[O-])c3ncnc(O)c23)cc1 | 30.1 | 37.2 | 91.6 | 65.8 | 41.7 | > 100 |  | 
CNC(=O)c1cc(Oc2ccc(NC(=O)Nc3ccc(Cl)c(C(F)(F)F)c3)cc2)ccn1 [SORAFENIB] | 3.6 | 4.1 | 8.1 |  |  | 15.8 | Active | IC50 [8]: 72.9 µM
Cc1ccc(C(=O)Nc2cccc(Nc3ccc([N+](=O)[O-])c4ncnc(O)c34)c2)cc1 | 74 | 80.5 | > 100 | 32.7 | 12.8 | > 100 |  | 
O=C(Nc1ccc(Nc2ccc([N+](=O)[O-])c3ncnc(O)c23)cc1)c1cccc(F)c1 | 36.1 | 38.9 | 83.3 | 69.4 | 36.9 | > 100 | Active | 
Cc1ccc(C(=O)Nc2ccc(CN3CCN(C)CC3)c(C(F)(F)F)c2)cc1C#Cc1cnc2cccnn12 [PONATINIB] | 0.6 | 0.5 | 5.3 |  |  | 10.5 |  | IC50 [8]: 64.7 µM
